Assay [1] has as its system Staphylococcus aureus VRS-2 (VanA, VRSA). In words: microbe, parasite or virus in culture. Particulars: for MIC: Staphylococcus aureus, VRSA. On the procedure:
(§1) The S. aureus strains ATCC 29213, ATCC 19636, ATCC 33591 (MRSA), BAA-1556 (MRSA USA 300) were obtained from the American Type Culture Collection (ATCC). […] The species identity was confirmed with 16S rRNA analysis.
(§2) Two broth mediums were used, Mueller Hinton Broth and RPMI 1640+5% fetal bovine serum. Test substances were evaluated in 11-point titrations and performed in duplicate.
(§3) The direct colony suspension method was used to prepare inoculated broth. Isolated colonies were taken from an 18-24 h culture plate. Optical density measurements (OD620nm) were used to estimate the bacterial density. […] The stock solutions were diluted by 2-fold serial titrations with their respective vehicles for a total of 11 concentrations.
(§4) A 4 μL aliquot of each dilution was added to 196 μL of broth medium seeded with the organism in wells of a sterilized 96 well polypropylene plate (Nunc™ 249949) using aluminum foil as cover. The final bacterial count was 2 to 8×10^5 CFU/mL. […] The final test article concentration range was 32 to 0.0313 μg/mL.
(§5) Each test substance dilution was evaluated in duplicate on one test occasion. […] Plates were incubated at 35-37° C. for 18 h. The test plates were visually examined and each well was visually scored for growth or complete inhibition of growth. The MIC value was recorded.

The subject of assay [2] is Staphylococcus aureus ATCC 29213. In words: microbe, parasite or virus in culture. Particulars: for MIC: Staphylococcus aureus. How it is done: as §1, §2, §3, §4, §5
For assay [3], the system named is Staphylococcus aureus ATCC BAA-1556 (USA300, MRSA). In words: microbe, parasite or virus in culture. Particulars: for MIC: Staphylococcus aureus. How it is done: as §1, §2, §3, §4, §5
Assay [4] relates to Staphylococcus aureus ATCC 33591 (MRSA). In words: microbe, parasite or virus in culture. Conditions: for MIC: Staphylococcus aureus. How it is done:
as §1, §2, §3, §4, §5

Assay [5] deals with Staphylococcus aureus ATCC 19636 (Smith). In words: microbe, parasite or virus in culture. Conditions: for MIC: Staphylococcus aureus. On the procedure: as §1, §2, §3, §4, §5
Another assay relates to EMRSA-15 lung infection. How it is done: Murine EMRSA-15 lung infection model. In one embodiment this was carried out using the method described previously,^58 an overnight culture of EMRSA-15 was prepared in tryptic soy broth (TSB). EMRSA-15 was cultured in TSB overnight at 37° C., adjusted to a starting OD600 of 0.025, and grown for additional 4 h for agar beads preparation. EMRSA-15 was embedded into agar beads by mixing the overnight culture with molten tryptic soy agar, which was then spun into warmed mineral oil. The preparation was cooled and centrifuged at 2,700 g, the remaining oil was eliminated and the beads were washed in sterile PBS. The colony forming unit (cfu) content of the beads slurry was subsequently quantified on TSA plates and the beads slurry then diluted to either 2×10^7 cfu/ml in sterile PBS to deliver a final dose of either 1×10^6 cfu/mouse. Animal work was performed in accordance with the Animals (Scientific Procedures) Act of 1986 (United Kingdom). On day 0, male C57B16J mice (8-10 weeks, Charles River) were anesthetized under Isoflurane and 50 μl inoculum of EMRSA-15 embedded in agar beads (10^6 cfu/mouse) was instilled directly into the respiratory tract via oropharyngeal dosing (o.a) to reduce severity associated with surgery. Sham control mice were inoculated with sterile PBS agar beads. […] Body weight was measured daily, and animals monitored at regular intervals for signs of pain and distress. 48 hours post pulmonary infection, animals were terminally euthanized using 25% Urethane via intra-peritoneal injection. Lungs, were removed and homogenized in 2 ml PBS. Samples were serially diluted 1:10 in PBS and plated for CFU count. Lung homogenates were then centrifuged at 14000 rpm for 30 min at 4° C. and the supernatants were stored at −80° C. for future analysis. For bronchoalveolar lavage fluid collection and analysis (total and differential cell count), a 22-gauge catheter was inserted into the trachea and BAL was recovered by instillation of 0.5 ml of sterile PBS three times and total cells counts were performed by adding Turks stain in a 1:1 ratio. Total cells were then enumerated on an improved Naubauer haemocytometer. BAL fluid was then centrifuged, and supernatants were stored at −20° C. Cytospin slides were prepared and 100 μl of BAL was added into a cytospin funnel and centrifuged at 1000 rpm for 1 minute on a medium acceleration. The slides were then stained using Diff-Quick (Dade, Biomap, Italy).
More suitably Murine EMRSA-15 lung infection model was carried out using the method described previously,^58 an overnight culture of EMRSA-15 was prepared in tryptic soy broth (TSB). EMRSA-15 was cultured in TSB overnight at 37° C., adjusted to a starting OD600 of 0.025, and grown for additional 4 h for agar beads preparation. EMRSA-15 was embedded into agar beads by mixing the overnight culture with molten tryptic soy agar, which was then spun into warmed mineral oil. The preparation was cooled and centrifuged at 2,700 g, the remaining oil was eliminated, and the beads were washed in sterile PBS. The colony forming unit (CFU) content of the beads slurry was subsequently quantified on TSA plates and the beads slurry then diluted to either 2×10^7 CFU/ml in sterile PBS to deliver a final dose of either 1×10^6 CFU/mouse. Animal work was performed in accordance with the Animals (Scientific Procedures) Act of 1986 (United Kingdom). On day 0, male C57B16J mice (8-10 weeks, Charles River) were anesthetized under Isoflurane and 50 μl inoculum of EMRSA-15 embedded in agar beads (10^6 CFU/mouse) was instilled directly into the respiratory tract via oropharyngeal dosing (o.a.) to reduce severity associated with surgery. Sham control mice were inoculated with sterile PBS agar beads.

Assay [6] concerns P. aeruginosa RP73 lung infection. In words: Murine P. aeruginosa RP73 lung infection model. The class given is in vivo, mouse.
The next assay has as its system VRE12201. In words: Antibacterial activity assay (broth microdilution MIC). It is filed as cell-based, Enterococcus faecalis. Conditions: medium and unit inferred. An excerpt: Antibacterial activity assay.
The bacterial strains used are as in the above examples. A table of strains is provided below to aid understanding.
Background: Dilution methods test growth across graded concentrations, often in twofold steps.

For assay [7], the system named is EMR Staphylococcus aureus-16 (EMRSA-16). The class given is cell-based. Conditions: EMRSA16; medium and unit not given; in µg/mL.
The test system of assay [8] is Escherichia coli NCTC 12923. It is filed as cell-based. Conditions: EC12923; medium and unit not given; in µg/mL.
The next assay concerns HeLa. In words: Cytotoxicity assay (XTT). The class given is cell-based, human. More on the design: Toxicity HeLa: unit not given beside the values. Particulars: unit not given. On the procedure:
(§6) Cytotoxicity assay. HeLa and HEK293 cell lines were purchased from ECACC and cultured in Eagle's Minimum Essential Media (EMEM) containing glutamine, supplemented with 10% FBS and 1× non-essential amino acids (NEAA) at 37° C., 10% CO2. Cytotoxicity was measured by incubating starter cultures of cells for 24 hours in a 96 well plate, gently removing the supernatant and replacing it with dilutions of peptides and controls, incubating for a further 24 hours and then staining of the cells with the second generation tetrazolium dye, XTT. […]
In general terms: Tetrazolium dyes change colour on reduction, which living cells bring about.

The subject of a further assay is HEK293. In words: Cytotoxicity assay (XTT). Particulars: unit not given. The class given is cell-based, human. How it is done: as §6
Assay [9] has as its system Klebsiella pneumoniae NCTC 13368. The class given is cell-based. Particulars: KP13368; medium and unit not given; in µg/mL.
Assay [10] concerns Pseudomonas aeruginosa PA01. In words: Antibacterial activity assay (broth microdilution MIC). It is filed as cell-based. Particulars: medium and unit not given, in µg/mL.
In assay [11] the test system is MS Staphylococcus aureus ATCC 9144. It is filed as cell-based. Particulars: MSSA9144; medium and unit inferred.
Assay [12] deals with Acinetobacter baumannii AYE. The class given is cell-based. Conditions: AYE; medium and unit not given; in µg/mL.
The subject of assay [13] is Pseudomonas aeruginosa NCTC 13437. In words: Antibacterial activity assay (broth microdilution MIC). It is filed as cell-based. Conditions: PA13437; medium and unit not given; in µg/mL.
In assay [14] the test system is Acinetobacter baumannii ATCC 17978. It is filed as cell-based. Particulars: AB17978; medium and unit not given; in µg/mL.
The test system of assay [15] is VS Enterococcus faecalis NCTC 775. In words: Antibacterial activity assay (broth microdilution MIC). Conditions: VSE775; medium and unit not given; in µg/mL. The class given is cell-based.
The subject of assay [16] is EMR Staphylococcus aureus-15 (EMRSA-15). It is filed as cell-based. Conditions: EMRSA15; medium and unit inferred.
For a further assay, the system named is Klebsiella pneumoniae M6. It is filed as cell-based. Conditions: medium and unit not given, in µg/mL.
A further assay deals with C. albicans. In words: MIC on initial panels, fungi. The class given is cell-based. Conditions: unit inferred.

Values after ≈ are worked out from the molar mass of the structure shown. Read-outs that look alike come from different tables or passages of the source.

`CN[C@H](CC(C)C)C(=O)N[C@H]1C(=O)N[C@@H](CC(N)=O)C(=O)N[C@H]2C(=O)N[C@H]3C(=O)N[C@H](C(=O)N[C@H](C(=O)O)c4cc(O)cc(O)c4-c4cc3ccc4O)[C@H](O)c3ccc(c(Cl)c3)Oc3cc2cc(c3O[C@@H]2O[C@H](CO)[C@@H](O)[C@H](O)[C@H]2O[C@H]2C[C@](C)(N)[C@H](O)[C@H](C)O2)Oc2ccc(cc2Cl)[C@H]1O` [Vancomycin]: the MIC is over 64 µg/mL in assay [1] (18 h, read-out: MIC, antibiotic susceptibility, VRS-2, CLSI M7-A10, unit inferred); 4 µg/mL (≈ 2.76 µM) in assay [1] (VRS-2, MHB); over 32 µg/mL in [1] (VRS-2, RPMI + 5% FBS); 0.5 to 1 µg/mL (≈ 0.345 to 0.69 µM) in assay [2] (ATCC29213, 18 h, read-out: MIC, antibiotic susceptibility, ATCC 29213, CLSI M7-A10, unit inferred); 0.5 µg/mL (≈ 0.345 µM) in assay [2] (ATCC29213, ATCC 29213, MHB); 2 µg/mL in assay [2] (ATCC29213, ATCC 29213, RPMI + 5% FBS). Also, the MIC is 0.5 µg/mL (≈ 0.345 µM) in assay [3] (ATCC BAA-1556, MHB); 2 µg/mL in assay [3] (ATCC BAA-1556, RPMI + 5% FBS); 0.5 to 1 µg/mL (≈ 0.345 to 0.69 µM) in [3] (ATCCBAA1556|BAA1556|MRSA|USA300, 18 h, read-out: MIC, antibiotic susceptibility, BAA-1556, CLSI M7-A10, unit inferred); 1 µg/mL (≈ 0.69 µM) in [4] (ATCC 33591, MHB); 4 µg/mL in assay [4] (ATCC 33591, RPMI + 5% FBS); 1 µg/mL (≈ 0.69 µM) in [4] (ATCC33591|MRSA, 18 h, read-out: MIC, antibiotic susceptibility, ATCC 33591, CLSI M7-A10, unit inferred). Further, the MIC was found to be 1 µg/mL (≈ 0.69 µM) in [5] (ATCC19636, 18 h, read-out: MIC, antibiotic susceptibility, ATCC 19636 (Smith), CLSI M7-A10, unit inferred); 0.5 µg/mL (≈ 0.345 µM) in assay [5] (ATCC19636, ATCC 19636 (Smith), MHB); 2 µg/mL in assay [5] (ATCC19636, ATCC 19636 (Smith), RPMI + 5% FBS). In addition, the “susceptibility category (CLSI M100 interpretive criteria)” value in assay [1] (VRS-2) is recorded as “R”; in [2] (ATCC 29213), “S”; in assay [3] (BAA-1556) it was “S”; in assay [4] (ATCC 33591) it was “S”; in assay [5] (ATCC 19636 (Smith)), “S”. For the same compound, the “IL-6 and neutrophil recruitment in BAL” value with EMRSA-15 lung infection (following therapy, i.v.) is “reduced”. Moreover, in the assay with EMRSA-15 lung infection (following therapy, i.v.), the “macrophage numbers, TNFα and MCP-1 levels in BAL” value is reported as “No effects”. Besides, in the assay with EMRSA-15 lung infection (murine EMRSA-15 lung infection), the “effective cumulative dose over 48 hrs” value was 200 mg/kg. Besides, in the assay with EMRSA-15 lung infection (vancomycin 600 mg/kg or the two higher D-pleurocidin-KR doses (15, 1.5 mg/kg cumulative)), the “mouse KC levels in BAL” value is “KC levels to fall to that of the uninfected group”.

Regarding `NC[C@H]1O[C@H](O[C@H]2[C@H](O)[C@@H](O[C@H]3O[C@H](CO)[C@@H](O)[C@H](N)[C@H]3O)[C@H](N)C[C@@H]2N)[C@H](N)C[C@@H]1O` [tobramycin], the results for the “reduction in lung CFU” value in assay [6] (25 mg/kg tobramycin (p=0.0919)) and in assay [6] (cumulative dose of 200 mg/kg tobramycin over 30 hours) were 0.8 log10 and 1.4 log10, respectively.

“GWGSFFRRAAHAGRHAGRAALTHYL-NH2 [D-pleuro-VAKR, 6x substituted (4 K->R plus 2 V->A), D-amino acids]”: the MIC on initial panels in the assay on VRE12201 is 128 µg/mL; in assay [7], 64; in assay [8] it was 2; in [9], 4-8; in assay [10], 4; in assay [11], 8 µg/mL. Moreover, the “MIC on initial panels” value in [12] is 2; in assay [13], 32; in assay [14], 2; in assay [15] it was 32-64; in assay [16], 32 µg/mL; in the assay with Klebsiella pneumoniae M6 it was 4. In addition, the “Toxicity HeLa” value in the assay with HeLa was found to be 124.0 ± 30.4. Also, in the assay on HEK293, the “Toxicity HEK293” value was determined as 201.2 ± 25.1. Further, the MIC on initial panels, Fungi in the assay on C. albicans worked out at 32 µg/mL.
